The first data set in a line: Alkali developability. The class given is physicochemical. More on the design: key: A: the resist film dissolved completely and disappeared; C: the resist film remained not dissolved even in a slight amount. Conditions: tested on the corresponding polyphenol compound A before introducing the acid-dissociating group; film immersed in 2.38% aqueous TMAH for 10 s. As for the experimental part:
(5) Alkali Developability
A polyphenol compound A corresponding to each compound before introducing the acid-dissociating functional group was examined for its developability with an alkali developing solution.
A 10% by weight solution of each polyphenol compound A in PGMEA was spin-coated using a spin coater, to form a resist film of about 0.2 μm thick. After heating on a hot plate for 3 min at 110° C., the resist film was immersed in a 2.38% aqueous solution of TMAH for 10 s. The results were rated as “A” when the resist film dissolved completely and disappeared, and “C” when the resist film remained not dissolved even in a slight amount.
`CCOC(C)Oc1ccc2c(c1)Oc1cc(O)ccc1C21Cc2cccc3cccc1c23` (stereo not drawn) [Compound 12-1]: the “(5) Alkali developability” value was “A”.
As for `CC(C)(C)OC(=O)Oc1ccc(C(c2ccc(OC(=O)OC(C)(C)C)cc2)c2ccc(OC(=O)OC(C)(C)C)cc2)cc1` [Compound 14-3, reference compound], the “(5) Alkali developability” value was “A”.
Consider `CC(C)(C)OC(=O)Oc1ccc(-c2cc(-c3ccc(OC(=O)OC(C)(C)C)cc3)cc(-c3ccc(OC(=O)OC(C)(C)C)cc3)c2)cc1` [Compound 14-4, reference compound], for which the “(5) Alkali developability” value was “A”.
Same read-out and setting: the value for `Cc1cc(C(C)(c2ccc(O)c(C)c2)c2ccc3ccccc3c2)ccc1O` [Compound 14-5, 1-(2-naphthyl)-1,1-bis(3-methyl-4-hydroxyphenyl)ethane, reference compound] was “A”.

The nature of the next data set: Solubility of compound in safety solvent. The settings on record: safety solvent (PGMEA or EL) at 23° C. The data set is classed as physicochemical. As for the experimental part: (1) Solubility of Compound in Safety Solvent
Each compound was tested for its solubility in safety solvent (PGMEA or EL) at 23° C. The solubility was rated as “A” when dissolved in an amount of 5% by weight or more, “B” when dissolved in an amount of 0.1% by weight or more but less than 5% by weight, and “C” when not dissolved in an amount of 0.1% by weight or more.
Regarding `CCOC(C)Oc1ccc2c(c1)Oc1cc(O)ccc1C21Cc2cccc3cccc1c23` (stereo not drawn) [Compound 12-1], the “(1) Solubility in safety solvent” value was “A (dissolved in an amount of 5% by weight or more)”.
Same read-out and setting: the value for `CC(C)(C)OC(=O)Oc1ccc(C(c2ccc(OC(=O)OC(C)(C)C)cc2)c2ccc(OC(=O)OC(C)(C)C)cc2)cc1` [Compound 14-3, reference compound] was “A (dissolved in an amount of 5% by weight or more)”.
In the case of `CC(C)(C)OC(=O)Oc1ccc(-c2cc(-c3ccc(OC(=O)OC(C)(C)C)cc3)cc(-c3ccc(OC(=O)OC(C)(C)C)cc3)c2)cc1` [Compound 14-4, reference compound], the “(1) Solubility in safety solvent” value is on record as “A (dissolved in an amount of 5% by weight or more)”.
On to `Cc1cc(C(C)(c2ccc(O)c(C)c2)c2ccc3ccccc3c2)ccc1O` [Compound 14-5, 1-(2-naphthyl)-1,1-bis(3-methyl-4-hydroxyphenyl)ethane, reference compound], for which the “(1) Solubility in safety solvent” value is reported as “A (dissolved in an amount of 5% by weight or more)”.

A further data set can be described thus: Inhibition of dissolution in alkali developing solution. The data set is classed as physicochemical. On the set-up: key: A: no change was visually noticed in the state of film; C: the surface was roughened or a part of the film was lost because of dissolution. The settings on record: resist film immersed in 2.38% aqueous solution of TMAH for 3 min. As for the experimental part: (3) Inhibition of Dissolution in Alkali Developing Solution
The resist film formed in the evaluation 2 was immersed in a developing solution (2.38% aqueous solution of TMAH) for 3 min. The results were rated as “A” when no change was visually noticed in the state of film, and “C” when the surface was roughened or a part of the film was lost because of dissolution.
In the case of `CCOC(C)Oc1ccc2c(c1)Oc1cc(O)ccc1C21Cc2cccc3cccc1c23` (stereo not drawn) [Compound 12-1], the “(3) Inhibition of dissolution in developing solution” value (“(3) Inhibition of dissolution” for short) is listed as “A”.
Take `CC(C)(C)OC(=O)Oc1ccc(C(c2ccc(OC(=O)OC(C)(C)C)cc2)c2ccc(OC(=O)OC(C)(C)C)cc2)cc1` [Compound 14-3, reference compound]: the “(3) Inhibition of dissolution” value is recorded as “A”.
With `CC(C)(C)OC(=O)Oc1ccc(-c2cc(-c3ccc(OC(=O)OC(C)(C)C)cc3)cc(-c3ccc(OC(=O)OC(C)(C)C)cc3)c2)cc1` [Compound 14-4, reference compound], the “(3) Inhibition of dissolution” value was “A”.
`Cc1cc(C(C)(c2ccc(O)c(C)c2)c2ccc3ccccc3c2)ccc1O` [Compound 14-5, 1-(2-naphthyl)-1,1-bis(3-methyl-4-hydroxyphenyl)ethane, reference compound]: the “(3) Inhibition of dissolution” value is “C”.
